Experimental data from publication PMC12058161, “The plant matrix of Artemisia annua L. for the treatment of malaria: Pharmacodynamic and pharmacokinetic studies” (PLOS One, 2025).
Several values for one entry are separate records, joined by “and”; a condition that tells them apart may be missing. Equal entries are not always repeated. Where two headings read alike, the source gives them in different places.

Key:
[1] = Stability of the five compounds in SD rat plasma (QC samples, UHPLC-ESI-MS/MS); format: in vitro ADME; conditions: for 3 freeze-thaw cycles mean ± SD / 7 days at -80°C mean ± SD / Room temperature 24h mean ± SD: SD rat plasma QC sample; for stability, Accuracy (measured versus nominal concentration) / stability, mean ± SD (measured concentration): SD rat plasma, n=5
Caco-2 cells = experiment: Cytotoxicity in Caco-2 cells, CCK-8 assay; format: cell-based, human; conditions: for Cell survival rate%: mean; for cck-8 mean (survival fraction): mean of 6
Outline: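 Caco-2 cells, pre-grown 48 h, were exposed to compounds for 48 h at 37 °C with 0.05% v/v DMSO final. Viability was measured by CCK-8 (2 h, absorbance 450 nm) relative to negative-control cells.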

in vivo = conditions: male, Sprague Dawley, rat, po; for MRT last: MRT(0-t); for MRT inf: MRT(0-∞)
[2] = male, Sprague Dawley, rat, in vivo
[3] = system: Plasmodium yoelii (P. yoelii); experiment: Peters' four-day inhibition method, P. yoelii murine malaria model; format: in vivo, ICR mice; conditions: individual mice
Method: In vivo evaluation of antimalarial activity was performed using the classical Peters’ four-day inhibition method. A murine malaria model was constructed by intraperitoneal injection of 5.00 × 10^7 Plasmodium yoelii (P. yoelii)- or Plasmodium berghei (P. berghei)-infected erythrocytes. […] Mice were gavaged once 4 hours after infection with medicated soybean oil or the test drug (gavage standard was 0.20 mL/10 g), and the drug was administered orally for 4 consecutive days. Four hours after the last dose, blood was collected from the tail tip of the mice to make a thin blood smear. The smear was air-dried, fixed in methanol, stained with Giemsa for 30 minutes, then rinsed with distilled water, air-dried at room temperature, and visualized for malaria infection under a microscope (OLYMPUS BX43) at 100x oil immersion. The inhibition ratio (%) for each group was calculated using the following equations:
Inhibitionratio(%)=(infectionratiocontrolgroup−infectionratiotreatmentgroup)/infectionratiocontrolgroup×100

[4] = nominal 40 ng/mL, 3 freeze-thaw cycles
[5] = nominal 40 ng/mL, 7 days at -80°C
[6] = nominal 1000 ng/mL, 3 freeze-thaw cycles
[7] = nominal 1000 ng/mL, 7 days at -80°C
[8] = nominal 5000 ng/mL, 3 freeze-thaw cycles
[9] = nominal 5000 ng/mL, 7 days at -80°C
[10] = nominal 40 ng/mL, Room temperature 24h
[11] = nominal 1000 ng/mL, Room temperature 24h
[12] = nominal 5000 ng/mL, Room temperature 24h
[13] = Caco-2, concentration 10 μmol/L
[14] = Caco-2, concentration 20 μmol/L
[15] = Caco-2, concentration 40 μmol/L
[16] = Caco-2, concentration 80 μmol/L

C[C@@H]1CC[C@H]2[C@@H](C)C(=O)O[C@@H]3O[C@@]4(C)CC[C@@H]1[C@]32OO4 [ART, Artemisinin, reference compound]
Stability in plasma, measured concentration (mean ± SD) ([1]; 3 freeze-thaw cycles, QC concentration 40 ng/mL): 38.5 ± 2.35 ng/mL | Stability in plasma, measured concentration (mean ± SD) ([1]; 3 freeze-thaw cycles, QC concentration 1000 ng/mL): 1053 ± 29.9 ng/mL | Stability in plasma, measured concentration (mean ± SD) ([1]; 3 freeze-thaw cycles, QC concentration 5000 ng/mL): 4629 ± 113 ng/mL | Stability in plasma, measured concentration (mean ± SD) ([1]; 7 days at -80°C, QC concentration 40 ng/mL): 40.3 ± 0.80 ng/mL | Stability in plasma, measured concentration (mean ± SD) ([1]; 7 days at -80°C, QC concentration 1000 ng/mL): 1051 ± 29.5 ng/mL | Stability in plasma, measured concentration (mean ± SD) ([1]; 7 days at -80°C, QC concentration 5000 ng/mL): 4673 ± 65.9 ng/mL | Stability, measured concentration, mean ± SD ([1]; QC sample 40 ng/mL, 3 freeze-thaw cycles): 38.5 ± 2.35 ng/mL | Stability, measured concentration, mean ± SD ([1]; QC sample 40 ng/mL, 7 days at -80°C): 40.3 ± 0.80 ng/mL | Stability, measured concentration, mean ± SD ([1]; QC sample 40 ng/mL, Room temperature 24h): 41.1 ± 1.49 ng/mL | Stability, measured concentration, mean ± SD ([1]; QC sample 1000 ng/mL, 3 freeze-thaw cycles): 1053 ± 29.9 ng/mL | Stability, measured concentration, mean ± SD ([1]; QC sample 1000 ng/mL, 7 days at -80°C): 1051 ± 29.5 ng/mL | Stability, measured concentration, mean ± SD ([1]; QC sample 1000 ng/mL, Room temperature 24h): 1070 ± 40.9 ng/mL | Stability, measured concentration, mean ± SD ([1]; QC sample 5000 ng/mL, 3 freeze-thaw cycles): 4629 ± 113 ng/mL | Stability, measured concentration, mean ± SD ([1]; QC sample 5000 ng/mL, 7 days at -80°C): 4673 ± 65.9 ng/mL | Stability, measured concentration, mean ± SD ([1]; QC sample 5000 ng/mL, Room temperature 24h): 5229 ± 418 ng/mL | Stability in plasma, measured concentration (mean ± SD) ([1]; Room temperature 24h, QC concentration 40 ng/mL): 41.1 ± 1.49 ng/mL | Stability in plasma, measured concentration (mean ± SD) ([1]; Room temperature 24h, QC concentration 1000 ng/mL): 1070 ± 40.9 ng/mL | Stability in plasma, measured concentration (mean ± SD) ([1]; Room temperature 24h, QC concentration 5000 ng/mL): 5229 ± 418 ng/mL | 3 freeze-thaw cycles mean ± SD [1, 4]: 38.5 ± 2.35 ng/mL | 7 days at -80°C mean ± SD [1, 5]: 40.3 ± 0.80 ng/mL | Room temperature 24h mean ± SD ([1]; nominal 40 ng/mL): 41.1 ± 1.49 ng/mL | 3 freeze-thaw cycles mean ± SD [1, 6]: 1053 ± 29.9 ng/mL | 7 days at -80°C mean ± SD [1, 7]: 1051 ± 29.5 ng/mL | Room temperature 24h mean ± SD ([1]; nominal 1000 ng/mL): 1070 ± 40.9 ng/mL | 3 freeze-thaw cycles mean ± SD [1, 8]: 4629 ± 113 ng/mL | 7 days at -80°C mean ± SD [1, 9]: 4673 ± 65.9 ng/mL | Room temperature 24h mean ± SD ([1]; nominal 5000 ng/mL): 5229 ± 418 ng/mL | stability, Accuracy (measured versus nominal concentration) [1, 4]: 96.14% | stability, mean ± SD (measured concentration) [1, 4]: 38.5 ± 2.35 ng/mL and 38.46 ng/mL | stability, Accuracy (measured versus nominal concentration) [1, 5]: 100.80% | stability, mean ± SD (measured concentration) [1, 5]: 40.3 ± 0.80 ng/mL and 40.32 ng/mL | stability, Accuracy (measured versus nominal concentration) [1, 10]: 102.70% | stability, mean ± SD (measured concentration) [1, 10]: 41.1 ± 1.49 ng/mL and 41.08 ng/mL | stability, Accuracy (measured versus nominal concentration) [1, 6]: 105.28% | stability, mean ± SD (measured concentration) [1, 6]: 1053 ± 29.9 ng/mL and 1052.79 ng/mL | stability, Accuracy (measured versus nominal concentration) [1, 7]: 105.14% | stability, mean ± SD (measured concentration) [1, 7]: 1051 ± 29.5 ng/mL and 1051.42 ng/mL | stability, Accuracy (measured versus nominal concentration) [1, 11]: 106.95% | stability, mean ± SD (measured concentration) [1, 11]: 1070 ± 40.9 ng/mL and 1069.53 ng/mL | stability, Accuracy (measured versus nominal concentration) [1, 8]: 92.59% | stability, mean ± SD (measured concentration) [1, 8]: 4629 ± 113 ng/mL and 4629.47 ng/mL | stability, Accuracy (measured versus nominal concentration) [1, 9]: 93.45% | stability, mean ± SD (measured concentration) [1, 9]: 4673 ± 65.9 ng/mL and 4672.51 ng/mL | stability, Accuracy (measured versus nominal concentration) [1, 12]: 104.57% | stability, mean ± SD (measured concentration) [1, 12]: 5229 ± 418 ng/mL and 5228.53 ng/mL | Cell survival rate%, single replicate (Caco-2 cells; Caco-2, 5μmol/L): 82.52% and 83.77% and 87.9% and 78.48% and 85.79% and 77.82% | Cell survival rate%, single replicate (Caco-2 cells; Caco-2, 10μmol/L): 91.57% and 89.14% and 82.1% and 68.6% and 78.83% and 84.29% | Cell survival rate%, single replicate (Caco-2 cells; Caco-2, 20μmol/L): 80.46% and 80.92% and 80.32% and 81.46% and 82.88% and 85.89% | Cell survival rate%, single replicate (Caco-2 cells; Caco-2, 40μmol/L): 70.44% and 87.86% and 77.89% and 75.6% and 92.55% and 87.29% | Cell survival rate%, single replicate (Caco-2 cells; Caco-2, 80μmol/L): 82.12% and 82.82% and 84.32% and 77.9% and 76.8% and 84.01% | cck-8 cell survival as fraction, single replicate (Caco-2 cells; Caco-2, concentration 5 μmol/L): 0.8252 and 0.8377 and 0.879 and 0.7848 and 0.8579 and 0.7782 | Cell survival rate% (Caco-2 cells; Caco-2, concentration 5 μmol/L): 82.71% | cck-8 mean (survival fraction) (Caco-2 cells; Caco-2, concentration 5 μmol/L): 0.827 | cck-8 cell survival as fraction, single replicate (Caco-2 cells; [13]): 0.9157 and 0.8914 and 0.821 and 0.686 and 0.7883 and 0.8429 | Cell survival rate% (Caco-2 cells; [13]): 82.42% | cck-8 mean (survival fraction) (Caco-2 cells; [13]): 0.824 | cck-8 cell survival as fraction, single replicate (Caco-2 cells; [14]): 0.8046 and 0.8092 and 0.8032 and 0.8146 and 0.8288 and 0.8589 | Cell survival rate% (Caco-2 cells; [14]): 81.99% | cck-8 mean (survival fraction) (Caco-2 cells; [14]): 0.820 | cck-8 cell survival as fraction, single replicate (Caco-2 cells; [15]): 0.7044 and 0.8786 and 0.7789 and 0.756 and 0.9255 and 0.8729 | Cell survival rate% (Caco-2 cells; [15]): 81.94% | cck-8 mean (survival fraction) (Caco-2 cells; [15]): 0.819 | cck-8 cell survival as fraction, single replicate (Caco-2 cells; [16]): 0.8212 and 0.8282 and 0.8432 and 0.779 and 0.768 and 0.8401 | Cell survival rate% (Caco-2 cells; [16]): 81.33% | cck-8 mean (survival fraction) (Caco-2 cells; [16]): 0.813 | AUC(0-inf) (in vivo; 100 mg/kg): 418 ± 133 ng·h/mL | AUC(0-t) (in vivo; 100 mg/kg): 386 ± 128 ng·h/mL | MRT last (in vivo; 100 mg/kg): 1.18 ± 0.255 h | MRT inf (in vivo; 100 mg/kg): 1.67 ± 0.333 h | AUC(0-inf) (in vivo; 352 mg/kg): 816 ± 383 ng·h/mL | AUC(0-t) (in vivo; 352 mg/kg): 763 ± 345 ng·h/mL | Cmax (in vivo; 352 mg/kg, Cmax): 513 ± 186 ng/mL | MRT last (in vivo; 352 mg/kg): 1.71 ± 0.513 h | MRT inf (in vivo; 352 mg/kg): 2.54 ± 0.785 h | Tmax (in vivo; 352 mg/kg, Tmax): 0.388 ± 0.328 h | plasma concentration (plasma concentration-time curve) ([2]; 0.08 h): 180.137 | plasma concentration (plasma concentration-time curve) ([2]; 0.5 h): 247.263 | plasma concentration (plasma concentration-time curve) ([2]; 1 h): 173.84 | plasma concentration (plasma concentration-time curve) ([2]; 1.5 h): 81.963 | plasma concentration (plasma concentration-time curve) ([2]; 2 h): 51.011 | plasma concentration (plasma concentration-time curve) ([2]; 3 h): 33.992 | plasma concentration (plasma concentration-time curve) ([2]; 4 h): 27.897 | Vz ([2]; po, 100 mg/kg): 0.08 ± 0.03 L | CL ([2]; po, 352 mg/kg): 0.032 ± 0.018 L/h | Vz ([2]; po, 352 mg/kg): 0.061 ± 0.008 L | parasitemia% ([3]; 5.68 mg/kg): 70.2912% and 67.0337% and 68.4147% and 69.5326% and 69.0526% | parasitemia% ([3]; 11.368 mg/kg): 34.1852% and 49.4174% and 42.0754% and 41.1875% and 34.5379% | parasitemia% ([3]; 22.736 mg/kg): 1.979% and 6.804% and 2.98% and 0.248% and 3.003%
